Test system: Th1/Th2 cytokines in nasal polyp patient specimens
Experiment: Ex vivo cytokine inhibition in nasal polyp patient specimens (CBA)
Type: cell-based, human
Conditions: antibody drugs 100 nM; three DUPIXENT-resistant samples of 10; Th2 cytokines IL-5, IL-4
Experimental: The specimens were finely chopped and minced, and then additionally processed twice using the m_lung_02 protocol on a gentleMACS (Miltenyi Biotec) to obtain tissue fragments. After centrifugation at 1500 rpm for 3 minutes to ensure that all tissues formed a pellet, RPMI media+10% FBS was aliquoted in the pellet at a 1:3 ratio. The pellet was thoroughly mixed with the medium and dispensed into a 96-well u-bottom plate, 100 μl per well, in triplicate for each drug. To establish the screening assay, results were obtained first using dexamethasone (a steroid-based positive control drug), followed by treatment with the anti-CD200R1 antibody (P001009v1) and other drugs used for the corresponding disease. All antibody-based drugs were treated at 100 nM, while steroid drugs such as dexamethasone were treated at 20 μM.
After drug treatment, the cells were incubated at 37° C. for 1 hour. To increase overall cytokine levels, 4 μl of a 10-fold diluted cell stimulation cocktail 500× (Invitrogen #00-4970-03) was added on each well and mixed. After reaction for 24 hours at 37° C., the supernatant was collected by centrifugation. Using the human Th1/Th2 cytokine cytometric bead array (CBA) kit (BD, #550749), cytokine levels in the supernatant were measured and the degree of drug responsiveness of each sample was determined.

**Q.** “DUPIXENT®: drug used as a conventional therapeutic agent for atopic dermatitis and allergic diseases [reference compound]” was tested. Which “cytokine suppression in nasal polyp patient samples” value did it give?
**A.** Its value is “no suppression”.

From patent US20260263521A1, “ANTI-CD200R1 ANTIBODY AND USE THEREOF” (AIMED BIO INC., priority 2023, published 2026)
